{
  "source": "patent US20180265867A1",
  "about": "“NUCLEIC ACID MOLECULES WITH ENHANCED ACTIVITY” (priority 2015, published 2018)",
  "note": "d = 2'-deoxy (DNA); r = 2'-OH (RNA)",
  "data": [
    {"tested_on": "MG63 cells", "experiment": "Fluorescence / confocal microscopy of cellular distribution in MG63 cells", "assay_type": "cell-based, human", "conditions": "fluorescently labelled, transfection reagent free", "description": "Cellular uptake experiments were performed by plating cells (1×10^4) in an 8 well chamber slide. At 70% confluency, the cells were transfected with 50 nM Cy3-cpRNA and incubated at 37° C. for 24 h. Control wells were left untreated. Each transfection was performed in triplicate. […] The slides were mounted using Vectashield mounting medium containing 4′, 6-diamidino-2-phenylindole (DAPI) (Vector Labs, Burlingame, Calif.) to stain the nuclei of cells.\nMG63—human osteosarcoma cells were cultured in α-MEM (Sigma-Aldrich, Haverhill, UK) medium containing 10% FBS, 1% L-Glutamine, and 1% antibiotics (PeSt) at 37° C. with 5% CO2. One day prior to the siRNA treatment, 35,000 cells were plated per each well of a 24-well plate. On the experiment day, cells were replaced with 10% heat inactivated-FBS containing α-MEM medium with 1% L-Glutamine, and 1% antibiotics (PeSt). Fluorescently (Cy3) labelled CP-siRNA and nicked CP-siRNA having GAPDH targeting sequence (final concentration: 50 nM) was given to the each well. After 24 hours the cells were washed with PBS and fixed with 4% formaldehyde for 20 mins at room temperature and then washed twice with PBS. DAPI (1 ug/ml in PBS) was added to cells for 5 mins and then washed with PBS. The cells were then visualized in Nikon TiU at 20×+1.5× and analysed with the Nikon Imaging software.", "values": [
      {"substance": "nicked CP-siRNA: Nicked GAPDH CP-siRNA, sense SEQ ID NO: 28, nicked antisense sequences a and b SEQ ID NO: 29 and 30 (sense CCGAGCCACAUCGCUCAGATTTTT; antisense 1 UCUGAGCGAU; antisense 2 GUGGCUCGG; sense: sugars from the 5' end r19 d5, backbone not given here; antisense 1: RNA, backbone not given here; antisense 2: RNA, backbone not given here; further chemistry not fully specified)", "cellular distribution": "some nuclear localization"},
      {"substance": "CP-siRNA: GAPDH CP-siRNA, sense SEQ ID NO: 26 with dT5, antisense SEQ ID NO: 27; Cy3 labelled for imaging (sense CCGAGCCACAUCGCUCAGATTTTT; antisense UCUGAGCGAUGUGGCUCGGTT; sense: sugars from the 5' end r19 d5, backbone not given here; antisense: sugars from the 5' end r19 d2, backbone not given here; Cy3 label)", "cellular distribution": "perinuclear distribution"}
    ]},
    {"tested_on": "3p or 5p miR34a target-site in 3′ UTR of Renilla luciferase", "experiment": "Dual glo assay of miR34a strand selection in HCT116 cells", "assay_type": "cell-based, human", "conditions": "50 nM miRNA, 300 ng plasmid, RNAiMAX, 24 h", "description": "For all experiments RNAiMAX was used for transfection of both plasmid and miRNA in accordance with manufacturer's instructions, but with altered RNA and plasmid concentrations. For Dual glo assay, cells were co-transfected with 50 nM miRNA and 300 ng plasmid. For qPCR cells were transfected with 100 nM miRNA.\nHCT116 cells were seeded 10000 cells per well in a 96 well plate and transfected with both plasmid and miRNA 24 hours later. All transfections were performed in triplicates. The plasmids used were the dual luciferase reporter plasmid with either a 3p or 5p miR34a target-site cloned into the 3′ UTR (denoted plasmid 3 or plasmid 5). After 24 hours 75 μl of Dual glo firefly substrate (Promega) was added to each well. 100 μl of cell-lysate was moved to a microtiter plate after 10 minutes of incubation and luminescence was measured and it was followed by addition of 75 μl of Stop glo Renilla substrate (Promega) to the same plate and luminescence was measured again after 10 minutes of incubation. The Renilla luminescence values were normalized against the firefly luminescence values and expressed as a percentage of the negative control, a scrambled non-functional miRNA.\nDual glo assay and RT-qPCR were performed to identify the degree of strand selection of the modified miRNA. First, we designed two different plasmids (psiCheck2 vector) such that miRNA target-sequence (3p or 5p) is cloned into the 3′-UTR of the Renilla luciferase gene (see FIG. 16) with firefly luciferase as the internal control to normalize the Renilla luciferase expression. We estimated the levels of the individual strand recruitment (3p or 5p) using the dual-glo luminesce assay. The target-sequence corresponds exactly to either the 3p or 5p strands, and a change in luminescence can be directly attributed to the gene silencing efficiency.\nFour independent trials of dual glo assay were performed, with each of the samples in triplicates. Luminescence is shown as a percentage of the scrambled miRNA which serves as the negative control. Two different modifications were used on each of the strands of the miR34a (see Table 5). The miR34a was modified to make the 5p strand the guide strand by incorporating three deoxy thymidine residues at the 3′ end of the 3p strand (mod5a).", "values": [
      {"substance": "mod5a: miR34a with three deoxy thymidines added to 3′ end of 3p strand, SEQ ID NO: 37 and 21 (chain 1 CAAUCAGCAAGUAUACUGCCCUTTT; chain 2 UGGCAGUGUCUUAGCUGGUUGU; chain 1: sugars from the 5' end r22 d3, backbone not given here; chain 2: RNA, backbone not given here)", "strand selection (Dual glo luminescence)": "3p strand being less chosen as the guide strand"},
      {"substance": "mod3b: miR34a with five deoxy thymidines added to 3′ end of 5p strand, SEQ ID NO: 20 and 36 (chain 1 CAAUCAGCAAGUAUACUGCCCU; chain 2 UGGCAGUGUCUUAGCUGGUUGUTTTTT; chain 1: RNA, backbone not given here; chain 2: sugars from the 5' end r22 d5, backbone not given here)", "strand selection (Dual glo luminescence)": "slight increase in strand selection but this was not statistically significant"},
      {"substance": "mod3a: miR34a with three deoxy thymidines added to 3′ end of 5p strand, SEQ ID NO: 20 and 35 (chain 1 CAAUCAGCAAGUAUACUGCCCU; chain 2 UGGCAGUGUCUUAGCUGGUUGUTTT; chain 1: RNA, backbone not given here; chain 2: sugars from the 5' end r22 d3, backbone not given here)", "strand selection (Dual glo luminescence)": "slight increase in strand selection but this was not statistically significant"},
      {"substance": "mod5b: miR34a with five deoxy thymidines added to 3′ end of 3p strand, SEQ ID NO: 38 and 21 (chain 1 CAAUCAGCAAGUAUACUGCCCUTTTTT; chain 2 UGGCAGUGUCUUAGCUGGUUGU; chain 1: sugars from the 5' end r22 d5, backbone not given here; chain 2: RNA, backbone not given here)", "strand selection (Dual glo luminescence)": "3p strand being less chosen as the guide strand"}
    ]}
  ]
}
